Laboratory results taken from patent US20250129430A1, “HIGH ATP-AFFINITY PROTEIN AS THERAPEUTIC TARGET FOR INTRACTABLE CANCER MOLECULAR SUBTYPES AND INHIBITOR THEREOF” (VeraVerse Co., Ltd., priority 2021, published 2025).

Tests used:
Experiment in all cases: Cell viability drug screen, 12-point dose-response AUC
Format in all cases: cell-based, human
SNU620 = SNU620 cells; 72 hours
In short: (§1)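 Dose-response AUC reflects 72 h drug exposure of gastric cancer cells in a 12-point, half-log format, with viability read by luminescence and normalized to DMSO (0.5%).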

NCC59 = NCC59 cells; 72 hours
In short: as §1

MKN1 = MKN1 cells; 72 hours
In short: as §1

KATO3 = KATO3 cells; 72 hours
In short: as §1

YCC3 = YCC3 cells; 72 hours
In short: as §1

NCC24 = NCC24 cells; 72 hours
In short: as §1

SNU719 = SNU719 cells; 72 hours
In short: (§2)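 Viability: luminescence (Glo kit, 15 min RT), normalized to 0.5% DMSO vehicle. Dosing: half-log, 12 concentrations, 72 h. Cells: 5×10^3/well, treated 24 h after plating. Value: trapezoidal AUC, mean of repeats.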

SNU216 = SNU216 cells (non-SEM subtype); 72 hours
In short: as §2

NCC20 = NCC20 cells; 72 hours
In short: as §1

AGS = AGS cells (non-SEM subtype); 72 hours
In short: as §2

MKN45 = MKN45 cells (non-SEM subtype); 72 hours
In short: as §2

YCC2 = YCC2 cells; 72 hours
In short: as §1

SK4 = SK4 cells (SEM subtype); 72 hours
In short: as §1

SNU1750 = SNU1750 cells (SEM subtype); 72 hours
In short: as §1

SNU16 = SNU16 cells; 72 hours
In short: as §1

Hs746T = Hs746T cells (SEM subtype); 72 hours
In short: as §1

SNU638 = SNU638 cells; 72 hours
In short: as §1

NCI_N87 = NCI_N87 cells; 72 hours
In short: as §1

SNU601 = SNU601 cells; 72 hours
In short: as §1

MKN28 = MKN28 cells; 72 hours
In short: as §1

SNU1967 = SNU1967 cells; 72 hours
In short: as §1

SNU1 = SNU1 cells; 72 hours
In short: as §1

NCC19 = NCC19 cells; 72 hours
In short: as §1

SNU668 = SNU668 cells (SEM subtype); 72 hours
In short: as §1

MKN74 = MKN74 cells; 72 hours
In short: as §2

YCC11 = YCC11 cells (SEM subtype); 72 hours
In short: as §1

SNU484 = SNU484 cells (SEM subtype); 72 hours
In short: as §1

OCUM1 = OCUM1 cells; 72 hours
In short: as §1

FU97 = tested on: FU97; parameters: Average Area Under the Viability Curve (AUC), AUC norm value: scale not given here; settings: FU97 cells; 72 hours
In short: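 Trapezoidal AUC of a 12-point, DMSO-normalized dose-response curve. Luminescent viability was measured after 72 h of exposure at 37° C to half-log serial dilutions (0.5% DMSO control), dosed 24 h after plating FU97 cells at 5×10^3 per well.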

Compound | Average Area Under the Viability Curve (AUC), AUC norm value (SNU620) | Average Area Under the Viability Curve (AUC), AUC norm value (NCC59) | Average Area Under the Viability Curve (AUC), AUC norm value (MKN1) | Average Area Under the Viability Curve (AUC), AUC norm value (KATO3) | Average Area Under the Viability Curve (AUC), AUC norm value (YCC3) | Average Area Under the Viability Curve (AUC), AUC norm value (NCC24) | Average Area Under the Viability Curve (AUC), AUC norm value (SNU719) | Average Area Under the Viability Curve (AUC), AUC norm value (SNU216) | Average Area Under the Viability Curve (AUC), AUC norm value (NCC20) | Average Area Under the Viability Curve (AUC), AUC norm value (AGS) | Average Area Under the Viability Curve (AUC), AUC norm value (MKN45) | Average Area Under the Viability Curve (AUC), AUC norm value (YCC2) | Average Area Under the Viability Curve (AUC), AUC norm value (SK4) | Average Area Under the Viability Curve (AUC), AUC norm value (SNU1750) | Average Area Under the Viability Curve (AUC), AUC norm value (SNU16) | Average Area Under the Viability Curve (AUC), AUC norm value (Hs746T) | Average Area Under the Viability Curve (AUC), AUC norm value (SNU638) | Average Area Under the Viability Curve (AUC), AUC norm value (NCI_N87) | Average Area Under the Viability Curve (AUC), AUC norm value (SNU601) | Average Area Under the Viability Curve (AUC), AUC norm value (MKN28) | also measured
CO[C@H]1C(=O)[C@]2(C)[C@@H](OC)C[C@H]3OC[C@@]3(OC(C)=O)[C@H]2[C@H](OC(=O)c2ccccc2)[C@]2(O)C[C@H](OC(=O)[C@H](O)[C@@H](NC(=O)OC(C)(C)C)c3ccccc3)C(C)=C1C2(C)C [Cabazitaxel (Jevtana), Cabazitaxel] | −3.501 | 3.939 | −1.266 | 4.95 | 3.384 | −1.077 | 6.209 | 2.335 | −0.8551 | −2.201 | 2.138 | 0.2073 | −0.7298 | 0.6058 | −2.759 | 1.085 | −0.1608 | −1.712 | −1.688 | −2.213 | Average Area Under the Viability Curve (AUC), AUC norm value (SNU1967): 1.228; Average Area Under the Viability Curve (AUC), AUC norm value (SNU1): −3.451; Average Area Under the Viability Curve (AUC), AUC norm value (NCC19): 0; Average Area Under the Viability Curve (AUC), AUC norm value (SNU668): 0.4109; Average Area Under the Viability Curve (AUC), AUC norm value (MKN74): 0.4319; Average Area Under the Viability Curve (AUC), AUC norm value (YCC11): −1.189; Average Area Under the Viability Curve (AUC), AUC norm value (SNU484): −0.7278; Average Area Under the Viability Curve (AUC), AUC norm value (OCUM1): 3.086; Average Area Under the Viability Curve (AUC), AUC norm value (FU97): 0.3061
CC[C@@]1(O)C(=O)OCc2c1cc1n(c2=O)Cc2cc3ccccc3nc2-1 [Camptothecin] | −1.867 | 1.208 | −0.642 | 4.769 | 1.3493 | 0.5273 | 3.079 | 1.3094 | −1.829 | −1.989 | 0.1203 | 0 | −0.8823 | 0.02348 | −1.529 | 0.3026 | −0.9365 | 0.7261 | −1.853 | 0.3881 | Average Area Under the Viability Curve (AUC), AUC norm value (SNU1967): −1.86; Average Area Under the Viability Curve (AUC), AUC norm value (SNU1): −2.182; Average Area Under the Viability Curve (AUC), AUC norm value (NCC19): 0.9854; Average Area Under the Viability Curve (AUC), AUC norm value (SNU668): −1.202; Average Area Under the Viability Curve (AUC), AUC norm value (MKN74): −0.08807; Average Area Under the Viability Curve (AUC), AUC norm value (YCC11): −0.5718; Average Area Under the Viability Curve (AUC), AUC norm value (SNU484): 1.047; Average Area Under the Viability Curve (AUC), AUC norm value (OCUM1): −0.5033; Average Area Under the Viability Curve (AUC), AUC norm value (FU97): 1.097
